Residue numbers refer to the chain shown, from its start. Read-outs that look alike come from different tables or passages of the source. One block for each compound: values may come before it.
Tests used:
Format in all cases: cell-based
AQP9 [1] = molecular target: T1, AQP9 (Homo sapiens, UniProt O43315, C213A); assay: stopped-flow light scattering water and glycerol permeability of AQP9 Cys213Ala-expressing yeast at […]
T1 sequence (O43315 1-295 C213A): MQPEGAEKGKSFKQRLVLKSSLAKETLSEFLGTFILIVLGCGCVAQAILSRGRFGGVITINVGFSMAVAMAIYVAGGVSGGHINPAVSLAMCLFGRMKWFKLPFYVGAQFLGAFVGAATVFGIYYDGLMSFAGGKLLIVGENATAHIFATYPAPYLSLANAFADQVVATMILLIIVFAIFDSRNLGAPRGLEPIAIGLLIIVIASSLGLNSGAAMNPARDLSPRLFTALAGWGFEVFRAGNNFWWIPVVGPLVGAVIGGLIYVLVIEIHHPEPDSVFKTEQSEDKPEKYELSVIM

AQP9 [2] = molecular target: T2, AQP9 (Homo sapiens, UniProt O43315); assay: stopped-flow light scattering water and glycerol permeability of AQP9-expressing yeast at […]
T2 sequence (O43315 1-295): T1 sequence (O43315 1-295 C213A) with A213C

AQP1 [3] = molecular target: T3, AQP1 (Rattus norvegicus, UniProt P29975); assay: stopped-flow light scattering water permeability of AQP1-expressing yeast at […]; Cys189Ala variant resistant
T3 sequence (P29975 1-269): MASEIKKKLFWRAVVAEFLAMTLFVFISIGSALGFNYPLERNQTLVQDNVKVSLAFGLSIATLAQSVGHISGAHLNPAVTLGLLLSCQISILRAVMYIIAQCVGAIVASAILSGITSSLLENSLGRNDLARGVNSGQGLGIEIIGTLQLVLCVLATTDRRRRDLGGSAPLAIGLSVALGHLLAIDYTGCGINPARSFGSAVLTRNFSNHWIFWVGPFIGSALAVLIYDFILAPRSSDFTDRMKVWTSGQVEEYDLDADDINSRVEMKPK

AQP9 [4] = molecular target: T2, AQP9; assay: stopped-flow light scattering water and glycerol permeability of AQP9-expressing yeast at […]; remark: listed apart in the source
AQP9 [5] = molecular target: T1, AQP9; assay: stopped-flow light scattering water and glycerol permeability of AQP9 Cys213Ala-expressing yeast at […]; remark: listed apart in the source
AQP1 [6] = molecular target: T3, AQP1; assay: stopped-flow light scattering water permeability of AQP1-expressing yeast; Cys189Ala variant resistant; reversed by ACC/DTT
AQP1 [7] = molecular target: T3, AQP1; assay: stopped-flow light scattering water permeability of AQP1-expressing yeast at […] (marginal effect); Cys189Ala variant resistant

Compound: O=S(=O)([O-])c1cc[c]([Hg][Cl])cc1 [pCMBS]
stopped-flow light scattering water and glycerol permeability of AQP9 Cys213Ala- (AQP9 [1]): treatment of AQP9 Cys213Ala with BMTS or pCMBS failed to generate full resistance to the Cys-modifying agents
stopped-flow light scattering water and glycerol permeability of AQP9-expressing (AQP9 [2]): AQP9 water and glycerol permeability were strongly inhibited by BMTS and pCMBS

Compound: CCCSS(C)(=O)=O [PMTS]
stopped-flow light scattering water permeability of AQP1-expressing yeast at 1 m (AQP1 [3]): modification with S-n-propyl from PMTS conferred intermediate inhibition

IC50 (AQP1 [6]): 111 ± 3 µM
Compound: CS(=O)(=O)SCc1ccccc1 [BMTS]
stopped-flow light scattering water and glycerol permeability of AQP9-expressing (AQP9 [4]): AQP9 water and glycerol permeability were strongly inhibited by BMTS and pCMBS
stopped-flow light scattering water and glycerol permeability of AQP9 Cys213Ala- (AQP9 [5]): The water permeability of AQP9 Cys213Ala was still inhibited to the same degree as that of the wildtype protein

Compound: CSS(C)(=O)=O [MMTS]
stopped-flow light scattering water permeability of AQP1-expressing yeast at 1 m (AQP1 [7]): the transfer of a small S-methyl from MMTS had a marginal effect on the water permeability

Reference: PMC10340331, “Methylthiosulfonate-Based Cysteine Modifiers as Alternative Inhibitors of Mercurial-Sensitive Aquaporins” (Cells, 2023)
